In patent publication US20250026765A1, “SPIROHETEROCYCLE DERIVATIVE HAVING SEROTONIN RECEPTOR BINDING ACTIVITY” (Shionogi & Co., Ltd., priority 2021, published 2025):
Like-named read-outs stand apart in the source and are kept apart here.

Experiments:
CYP3A4 = CYP3A4 (Homo sapiens (Human), UniProt P08684); assay: CYP3A4 (MDZ) MBI test; assay type: in vitro ADME; conditions: pooled human liver microsomes, midazolam 1-hydroxylation, pre-reaction 0 or 30 minutes
Description: Test Example 8: CYP3A4 (MDZ) MBI Test
This test is a test to evaluate mechanism based inhibition (MBI) potency from enhancement of CYP3A4 inhibition of the compound of the present invention by a metabolism reaction. CYP3A4 inhibition is evaluated using pooled human liver microsomes by 1-hydroxylation reaction of midazolam (MDZ) as a marker reaction.
The reaction conditions are as follows: substrate, 10 μmol/L MDZ; pre-reaction time, 0 or 30 minutes; reaction time, 2 minutes; reaction temperature, 37° C.; pooled human liver microsomes, at pre-reaction 0.5 mg/mL, at reaction 0.05 mg/mL (at 10-fold dilution); concentrations of the compound of the present invention, 0.83, 5, 10, 20 μmol/L (four points).
Pooled human liver microsomes and a solution of the compound of the present invention in K-Pi buffer (pH 7.4) as a pre-reaction solution are added to a 96-well plate at the composition of the pre-reaction. A part of pre-reaction solution is transferred to another 96-well plate, and 1/10 diluted by K-Pi buffer containing a substrate. NADPH as a co-factor is added to initiate a reaction as a marker reaction (without preincubation). After a predetermined time of a reaction, methanol/acetonitrile=1/1 (V/V) solution is added to stop the reaction. In addition, NADPH is added to a remaining pre-reaction solution to initiate a pre-reaction (with preincubation). After a predetermined time of a pre-reaction, a part is transferred to another plate, and 1/10 diluted by K-Pi buffer containing a substrate to initiate a reaction as a marker reaction. After a predetermined time of a reaction, methanol/acetonitrile=1/1 (V/V) solution is added to stop the reaction. Each plate where the marker reaction has been performed is centrifuged at 3000 rpm for 15 minutes. Then, midazolam 1-hydroxide in the centrifuged supernatant is quantified by LC/MS/MS.
Only DMSO which is a solvent dissolving the compound of the present invention added to a reaction system is adopted as a control (100%). Remaining activity (%) is calculated at each concentration of the compound of the present invention added. IC is calculated by reverse-presumption by a logistic model using a concentration and an inhibition rate. Shifted IC value is calculated as “IC of preincubation at 0 min/IC of preincubation at 30 min”. When a shifted IC is 1.5 or more, this is defined as positive. When a shifted IC is 1.0 or less, this is defined as negative.

[1] = biological target: human recombinant 5-HT2A receptor (Homo sapiens (Human), UniProt P28223); assay: 5-HT2A receptor binding inhibition test ([3H]-Ketanserin); conditions: Jump-In HEK cell membrane, 25° C. 1.5 hours
human recombinant 5-HT2A receptor, sequence (P28223 whole entry): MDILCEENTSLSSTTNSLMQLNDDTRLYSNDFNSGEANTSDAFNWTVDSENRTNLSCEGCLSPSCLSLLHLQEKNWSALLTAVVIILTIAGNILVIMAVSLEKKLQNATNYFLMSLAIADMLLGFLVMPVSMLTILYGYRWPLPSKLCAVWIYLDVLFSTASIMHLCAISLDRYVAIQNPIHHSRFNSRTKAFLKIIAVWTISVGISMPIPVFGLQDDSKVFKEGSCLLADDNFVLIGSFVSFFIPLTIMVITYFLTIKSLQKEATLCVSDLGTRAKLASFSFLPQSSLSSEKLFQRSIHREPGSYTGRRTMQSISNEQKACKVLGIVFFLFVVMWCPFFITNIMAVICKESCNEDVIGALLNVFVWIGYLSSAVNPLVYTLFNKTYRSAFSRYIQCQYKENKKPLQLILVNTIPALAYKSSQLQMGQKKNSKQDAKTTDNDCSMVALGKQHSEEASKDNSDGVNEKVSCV
Method in brief: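 Membranes from Jump-In HEK cells expressing the receptor were incubated with [3H]-ketanserin at about its Kd (from Scatchard analysis) in Tris-HCl pH 7.4 buffer for 1.5 h at 25° C, then filtered and counted. Non-specific binding was defined with 500 μmol/L serotonin, and Ki was taken from dose-response curves.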

[2] = read-out: human serotonin 5-HT2A receptor binding activity Ki

CYP3A4, sequence (P08684 whole entry): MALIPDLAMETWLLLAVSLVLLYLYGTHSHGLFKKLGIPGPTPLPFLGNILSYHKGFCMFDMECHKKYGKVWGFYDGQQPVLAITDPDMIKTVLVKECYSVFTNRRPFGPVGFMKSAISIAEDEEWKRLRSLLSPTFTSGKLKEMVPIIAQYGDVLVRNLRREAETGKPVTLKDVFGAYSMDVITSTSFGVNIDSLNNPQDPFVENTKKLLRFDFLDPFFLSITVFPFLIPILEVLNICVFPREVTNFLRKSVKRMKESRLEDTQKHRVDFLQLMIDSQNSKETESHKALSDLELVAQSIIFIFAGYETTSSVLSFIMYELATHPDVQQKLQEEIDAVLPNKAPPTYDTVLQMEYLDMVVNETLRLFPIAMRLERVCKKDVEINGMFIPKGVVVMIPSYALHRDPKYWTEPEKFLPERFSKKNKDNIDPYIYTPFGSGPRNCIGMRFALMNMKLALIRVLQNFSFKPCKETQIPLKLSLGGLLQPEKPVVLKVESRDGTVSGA

Ki [1, 2] | Structure (SMILES) | CYP3A4 (MDZ) MBI (shifted IC) (CYP3A4) | Ki ([1]; read-out: h-5-HT2A Ki)
0.703 nM | CCCCOc1ccc(CN(Cc2coc(C)n2)C2=NOC3(CCN(C)CC3)N2)cc1F [Compound I-115] | Negative (When a shifted IC is 1.0 or less, this is defined as negative) | –
1.36 nM | Cc1nc(CN(Cc2ccc(OCC(C)C)cc2F)C2=NOC3(CCN(C)CC3)N2)co1 [Compound I-128] | Negative (When a shifted IC is 1.0 or less, this is defined as negative) | –
1.26 nM | Cc1nc(CN(Cc2ccc(CCC(F)(F)F)cc2)C2=NOC3(CCN(C)CC3)N2)co1 [Compound I-125] | Negative (When a shifted IC is 1.0 or less, this is defined as negative) | –

Continued, compound first:

Structure (SMILES) | Ki [1, 2] | CYP3A4 (MDZ) MBI (shifted IC) (CYP3A4) | Ki ([1]; read-out: h-5-HT2A Ki)
Cc1nc(CN(Cc2ccc(OCC(F)(F)C(F)(F)F)cc2F)C2=NOC3(CCN(C)CC3)N2)co1 [Compound I-104] | 1.56 nM | Negative (When a shifted IC is 1.0 or less, this is defined as negative) | –
CCCCOc1ccc(CN(Cc2coc(C)n2)C2=NOC3(CCN(C)CC3)N2)c(F)c1 [Compound I-114] | 0.74 nM | Negative (When a shifted IC is 1.0 or less, this is defined as negative) | –
CCCCOc1ccc(CN(Cc2coc(CF)n2)C2=NOC3(CCN(C)CC3)N2)cc1 [Compound I-105] | 0.979 nM | Negative (When a shifted IC is 1.0 or less, this is defined as negative) | –
CCCCOc1ccc(CN(Cc2coc(C)n2)C2=NOC3(CCN(C)CC3)N2)cc1 [Compound I-080] | 0.823 nM | Negative (When a shifted IC is 1.0 or less, this is defined as negative) | < 10 nM
CCCCOc1ccc(CN(Cc2cnn(C)n2)C2=NOC3(CCN(C)CC3)N2)cc1 [Compound I-113] | 1.2 nM | Negative (When a shifted IC is 1.0 or less, this is defined as negative) | –
CC(C)COc1ccc(CN(Cc2coc(CF)n2)C2=NOC3(CCN(C)CC3)N2)cc1 [Compound I-067] | 1.37 nM | Negative (When a shifted IC is 1.0 or less, this is defined as negative) | < 10 nM
